Data: patent US10538491B2, “4,5-substituted picolinamide and picolinonitrile metabotropic glutamate receptor 2 negative allosteric modulators” (Vanderbilt University, priority 2015, dated 2020)
Read-outs that look alike come from different tables or passages of the source.

Experiments:
[1] = test system: Aβ-induced neurodegeneration; conditions: cited from earlier work
[2] = test system: group II mGlu receptors (mGlu2 and mGlu3); conditions: cited from earlier work
[3] = test system: mouse; conditions: mouse TST, normal animals; cited from earlier work
[4] = treatment for 7 days; cited from earlier work
[5] = test system: mice; conditions: cited from earlier work
[6] = test system: rat; conditions: rat FST, normal animals; cited from earlier work
[7] = test system: social isolation reared mice; conditions: cited from earlier work
[8] = test system: olfactory bulbectomized rats; conditions: repeated administration for 14 days; cited from earlier work
[9] = CFS model; cited from earlier work
[10] = test system: Helpless (H) mice; conditions: cited from earlier work; for activity in the tail suspension test: Helpless (H) mice
[11] = test system: central mGlu2 and mGlu3 receptors; conditions: in vivo; cited from earlier work
[12] = test system: C57Bl6/J mice; conditions: FST; cited from earlier work
[13] = target: rat mGlu2 (Rattus norvegicus (Rat), UniProt P31421); assay: mGlu2 Ca2+ flux assay; format: cell-based; conditions: for IC50: Gα15 HEK293 cells stably expressing rat mGlu2, glutamate EC80, >10,000 = no plateau, >30,000 = no measurable activity; for rat mGlu2 Glu max / remaining activity at 30 µM: amplitude of response in the presence of 30 μM test compound as percentage of maximal response to glutamate; for remaining activity at 30 µM: read-out: rat mGlu2 Glu max
Chain of rat mGlu2 (P31421 19-872): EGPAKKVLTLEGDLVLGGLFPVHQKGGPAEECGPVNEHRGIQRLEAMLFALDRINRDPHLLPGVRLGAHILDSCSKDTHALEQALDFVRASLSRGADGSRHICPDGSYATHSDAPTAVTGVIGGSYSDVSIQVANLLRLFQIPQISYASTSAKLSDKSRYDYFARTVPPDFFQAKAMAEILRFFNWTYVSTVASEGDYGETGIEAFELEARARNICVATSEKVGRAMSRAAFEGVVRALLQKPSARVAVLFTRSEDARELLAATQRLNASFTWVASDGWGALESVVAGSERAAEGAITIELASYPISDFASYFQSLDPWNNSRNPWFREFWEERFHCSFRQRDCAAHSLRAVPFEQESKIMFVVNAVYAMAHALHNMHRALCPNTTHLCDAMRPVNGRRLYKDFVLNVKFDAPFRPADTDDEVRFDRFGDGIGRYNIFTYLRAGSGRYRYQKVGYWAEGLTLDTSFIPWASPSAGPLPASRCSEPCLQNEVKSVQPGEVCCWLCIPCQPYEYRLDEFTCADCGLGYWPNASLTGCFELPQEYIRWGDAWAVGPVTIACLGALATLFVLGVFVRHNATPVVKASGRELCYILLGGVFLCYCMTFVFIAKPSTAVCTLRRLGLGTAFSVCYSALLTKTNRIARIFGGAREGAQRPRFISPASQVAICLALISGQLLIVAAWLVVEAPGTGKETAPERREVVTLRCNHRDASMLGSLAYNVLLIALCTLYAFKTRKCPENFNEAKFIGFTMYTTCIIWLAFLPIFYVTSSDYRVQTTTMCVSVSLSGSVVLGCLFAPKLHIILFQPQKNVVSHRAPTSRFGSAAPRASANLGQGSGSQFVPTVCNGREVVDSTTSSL
Method in brief: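 Gα15 HEK293 cells stably expressing rat mGlu2, Fluo-4 loaded; compound added, then glutamate at EC20 after 2.3 min and EC80 afterward, calcium flux read as F/F0. Peak amplitude around EC80 addition normalized to glutamate max; IC50 by unconstrained 4-parameter fit, top concentration 30 μM.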

SMILES	IC50 [13] [nM]	remaining activity at 30 µM [13] [%]	other results
CCS(=O)(=O)N(Cc1cccnc1)c1cccc(-c2ccc(C#N)cc2)c1 [LY566332]			Aβ-induced neurodegeneration [1]: amplified Aβ-induced neurodegeneration
CCCCCCCOC(=O)[C@@]1(F)[C@@H]2C[C@@H](OCc3ccc(Cl)c(Cl)c3)[C@@](N)(C(=O)O)[C@@H]21 [BCI-838]			duration of inhibition of group II mGlu receptors by brain concentration of active metabolite BCI-632 ([2]; once-daily dosing of oral prodrug): 22 h; learning and memory impairment ([2]; three months of treatment, Dutch APP transgenic mice): reversed Dutch APP transgene-associated learning and memory impairment; levels of monomeric and oAβ peptides in hippocampus and cortex ([2]; three months of treatment, two AD mouse models): decreased the levels of monomeric and oAβ peptides; anxiolytic effects ([2]; three months of treatment): anxiolytic effects; hippocampal progenitor cell proliferation ([2]; wild-type and Alzheimer's diseased mice, 3 months): stimulated hippocampal progenitor cell proliferation
N[C@]1(C(=O)O)[C@H]2[C@@H](C[C@H]1OCc1ccc(Cl)c(Cl)c1)[C@]2(F)C(=O)O [MGS0039]			antidepressant-like effects [3]: Antidepressant-like effects; number of escape failures [4]: significantly reduced the number of escape failures; marble-burying behavior [5]: reduced marble-burying behavior; spontaneous locomotor activity [5]: no significant change; antidepressant-like effects [6]: Antidepressant-like effects; immobility in the FST [7]: reversed the increased immobility; hyperactivity in the open field test [8]: attenuated the hyperactivity; learning deficit in the passive avoidance test [8]: attenuated the learning deficit; freezing behavior [9]: significantly decreased freezing behavior
N[C@](CC1c2ccccc2Oc2ccccc21)(C(=O)O)[C@H]1C[C@@H]1C(=O)O [LY341495]			effect on LY566332-amplified Aβ-induced neurodegeneration [1]: prevented; activity in the tail suspension test [10]: active; antidepressant effect in helpless mice ([10]; acute administration): potent antidepressant effect; antidepressant-like effects [3]: Antidepressant-like effects; hypolocomotor effect of mGlu2/3 agonist (LY379268) [11]: achieved the same result; marble-burying behavior [5]: significantly reduce marble-burying behavior; immobility time [12]: dose-dependently reduced immobility time; antidepressant-like effects [6]: Antidepressant-like effects
CNCCC(Oc1ccc(C(F)(F)F)cc1)c1ccccc1 (centres unmarked) [fluoxetine]			antidepressant effect in helpless mice ([10]; chronic (21 days) treatment): full antidepressant effect
CN1C(=O)CN=C(c2ccccc2)c2cc(Cl)ccc21 [diazepam]			freezing behavior [9]: significantly decreased freezing behavior
NC(=O)c1cc(-c2ccc(F)cc2)c(OCCOc2ccc(F)nc2)cn1 [Compound 113]	502		rat mGlu2 Glu max [13]: 1.38 (n = 2) %
CN(CCOCc1cncc(F)c1)c1cnc(C(N)=O)cc1-c1ccc(F)cc1 [Compound 131, 4-(4-fluorophenyl)-5-((2-((5-fluoropyridin-3-yl)methoxy)ethyl)(methyl)amino)picolinamide]	5770	2.62	
N#Cc1cc(COc2cnc(C(N)=O)cc2-c2ccc(F)cc2)ccc1F [Compound 148, 5-((3-cyano-4-fluorobenzyl)oxy)-4-(4-fluorophenyl)picolinamide]	1680	0.43	
COc1ccc(-c2cc(C(N)=O)ncc2OCc2ccc(C(F)(F)F)nc2)c(F)c1 [Compound 86, 4-(2-fluoro-4-methoxyphenyl)-5-((6-(trifluoromethyl)pyridin-3-yl)methoxy)picolinamide]	440	1.16	
Cc1cc(-c2cccc(C3=Nc4cc(C)c(C(F)(F)F)cc4NC(=O)C3)c2)cc(C)n1 [RO4491533]			activity in the tail suspension test [10]: active; hypolocomotor effect of mGlu2/3 agonist (LY379268) [11]: reversed the hypolocomotor effect; immobility time [12]: dose-dependently reduced immobility time
N#Cc1cc(-c2ccc(F)cc2)c(OCCCN2CCC(F)(F)CC2)cn1 [Compound 74, 5-(3-(4,4-difluoropiperidin-1-yl)propoxy)-4-(4-fluorophenyl)picolinonitrile]	> 10000	49.6	
CN(CCN1CCOCC1)c1cnc(C#N)cc1-c1ccc(F)cc1 [Compound 3, 4-(4-fluorophenyl)-5-(methyl(2-morpholinoethyl)amino)picolinonitrile]	> 10000	52.4	
NC(=O)c1cc(-c2ccc(F)cc2)c(N2CC(Oc3cccnc3)C2)cn1 [Compound 143, 4-(4-fluorophenyl)-5-(3-(pyridin-3-yloxy)azetidin-1-yl)picolinamide]	2030	7.01	
N#Cc1cncc(COc2cnc(C(N)=O)cc2-c2ccc(F)cc2)c1 [Compound 151]	683		rat mGlu2 Glu max [13]: 2.05%
NC(=O)c1cc(-c2ccc(C(F)(F)F)nc2)c(OCc2cc(F)cc(F)c2)cn1 [Compound 32, 5′-((3,5-difluorobenzyl)oxy)-6-(trifluoromethyl)[3,4′-bipyridine]-2′-carboxamide]	> 10000	35.1	
NC(=O)c1cc(-c2ccc(F)cc2)c(OCCOc2ccnc(F)c2)cn1 [Compound 117, 4-(4-fluorophenyl)-5-(2-((2-fluoropyridin-4-yl)oxy)ethoxy)picolinamide]	615	1.02	
NC(=O)c1cc(-c2ccc(F)cc2)c(OC2CCN(c3ccnc(C(F)(F)F)c3)CC2)cn1 [Compound 56, 4-(4-fluorophenyl)-5-((1-(2-(trifluoromethyl)pyridin-4-yl)piperidin-4-yl)oxy)picolinamide]	4190	4.5	
N#Cc1cccc(COc2cnc(C(N)=O)cc2-c2ccc(F)cc2)c1 [Compound 145, 5-((3-Cyanobenzyl)oxy)-4-(4-fluorophenyl)picolinamide]	429	1.5	
C[C@@H]1CN(CCOc2cnc(C(N)=O)cc2-c2ccc(F)cc2)C[C@H](C)O1 [Compound 95, 5-(2-((cis)-2,6-dimethylmorpholino)ethoxy)-4-(4-fluorophenyl)picolinamide]	> 10000	22.8	
NC(=O)c1cc(-c2ccc(F)cc2)c(OCCOc2ccc(C(F)(F)F)nc2)cn1 [Compound 115, 4-(4-fluorophenyl)-5-(2-((6-(trifluoromethyl)pyridin-3-yl)oxy)ethoxy)picolinamide]	1310	3.64	
Cn1cc(COc2cnc(C(N)=O)cc2-c2ccc(F)cc2)cn1 [Compound 53, 4-(4-fluorophenyl)-5-((1-methyl-1H-pyrazol-4-yl)methoxy)picolinamide]	1000	-0.46	
N#Cc1cc(F)cc(OCCOc2cnc(C(N)=O)cc2-c2ccc(F)cc2)c1 [Compound 153, 5-(2-(3-cyano-5-fluorophenoxy)ethoxy)-4-(4-fluorophenyl)picolinamide]	1370	1.58	
NC(=O)c1cc(-c2ccc(F)cc2)c(OCc2cccc(Br)c2)cn1 [Compound 34, 5-((3-bromobenzyl)oxy)-4-(4-fluorophenyl)picolinamide]	1590	10.1	
NC(=O)c1cc(-c2ccc(F)cc2)c(N2CC(Oc3ccc(C(F)(F)F)nc3)C2)cn1 [Compound 141, 4-(4-fluorophenyl)-5-(3-((6-(trifluoromethyl)pyridin-3-yl)oxy)azetidin-1-yl)picolinamide]	> 10000	53.9	
N#Cc1cc(-c2ccc(F)cc2)c(OCCCOc2cccnc2)cn1 [Compound 65, 4-(4-fluorophenyl)-5-(3-(pyridin-3-yloxy)propoxy)picolinonitrile]	> 10000	68.8	
C[C@@H]1CN(CCCOc2cnc(C(N)=O)cc2-c2ccc(F)cc2)C[C@H](C)O1 [Compound 99, 5-(3-((cis)-2,6-dimethylmorpholino)propoxy)-4-(4-fluorophenyl)picolinamide]	> 10000	15.8	
